# Data published in ChEMBL document CHEMBL1201862, “PubChem BioAssay data set” (2004).
# The source made the active and inactive calls.
# How the values were obtained:
# [1] = target: T1, Replicative DNA helicase DnaB (Mycobacterium tuberculosis, UniProt P9WMR3); test: DnaB intein splicing inhibitors, dose response, biochemical, cell-free fluorescence (AID 449749); format: functional
# T1 sequence (P9WMR3 whole entry): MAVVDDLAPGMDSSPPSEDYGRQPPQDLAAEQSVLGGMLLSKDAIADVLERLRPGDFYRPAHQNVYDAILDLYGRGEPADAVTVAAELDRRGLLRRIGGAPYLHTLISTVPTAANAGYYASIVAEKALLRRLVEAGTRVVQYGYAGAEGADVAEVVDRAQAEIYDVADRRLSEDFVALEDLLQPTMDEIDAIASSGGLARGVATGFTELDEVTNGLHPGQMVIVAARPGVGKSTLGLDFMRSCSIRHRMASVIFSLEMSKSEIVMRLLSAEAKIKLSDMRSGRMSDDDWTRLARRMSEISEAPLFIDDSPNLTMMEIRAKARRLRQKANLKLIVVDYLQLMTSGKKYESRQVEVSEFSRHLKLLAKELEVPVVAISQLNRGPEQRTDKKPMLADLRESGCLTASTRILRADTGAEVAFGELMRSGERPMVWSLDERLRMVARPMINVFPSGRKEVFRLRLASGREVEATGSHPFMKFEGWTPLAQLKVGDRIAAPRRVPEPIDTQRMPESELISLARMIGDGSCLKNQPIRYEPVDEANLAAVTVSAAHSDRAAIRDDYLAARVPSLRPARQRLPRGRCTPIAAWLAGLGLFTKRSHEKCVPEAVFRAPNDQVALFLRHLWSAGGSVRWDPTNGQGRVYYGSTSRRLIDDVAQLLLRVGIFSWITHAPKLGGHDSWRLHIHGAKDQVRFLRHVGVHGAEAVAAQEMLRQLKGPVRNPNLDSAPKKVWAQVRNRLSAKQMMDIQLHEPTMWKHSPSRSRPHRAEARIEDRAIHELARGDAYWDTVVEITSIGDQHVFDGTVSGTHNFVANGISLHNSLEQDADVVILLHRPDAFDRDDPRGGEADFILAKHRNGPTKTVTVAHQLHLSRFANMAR
# Estrogen receptor = target: T2, Estrogen receptor (Homo sapiens, UniProt P03372);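 also: potency for inhibiting coactivator peptide recruitment to the receptor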
# T2 sequence (P03372 whole entry): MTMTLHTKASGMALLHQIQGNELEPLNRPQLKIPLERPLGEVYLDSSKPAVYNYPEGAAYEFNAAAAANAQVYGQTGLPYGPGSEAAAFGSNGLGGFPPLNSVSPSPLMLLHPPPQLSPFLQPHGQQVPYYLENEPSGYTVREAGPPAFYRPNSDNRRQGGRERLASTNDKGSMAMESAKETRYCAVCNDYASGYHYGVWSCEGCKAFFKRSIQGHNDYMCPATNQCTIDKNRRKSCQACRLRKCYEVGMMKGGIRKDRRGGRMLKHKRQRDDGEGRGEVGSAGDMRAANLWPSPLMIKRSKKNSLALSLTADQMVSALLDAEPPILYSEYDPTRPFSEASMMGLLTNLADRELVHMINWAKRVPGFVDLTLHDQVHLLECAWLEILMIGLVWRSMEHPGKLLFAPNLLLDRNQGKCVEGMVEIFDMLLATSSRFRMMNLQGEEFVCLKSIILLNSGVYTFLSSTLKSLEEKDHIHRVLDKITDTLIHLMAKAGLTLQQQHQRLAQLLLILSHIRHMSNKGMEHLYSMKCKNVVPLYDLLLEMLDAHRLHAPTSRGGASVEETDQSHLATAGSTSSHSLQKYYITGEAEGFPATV
# [2] = target: Serine/threonine-protein phosphatase PP1-alpha catalytic subunit (Homo sapiens, UniProt P62136); test: PP1 phosphatase inhibitors, dose response, biochemical, fluorescence (AID 2394)
# Sequence of Serine/threonine-protein phosphatase PP1-alpha catalytic subunit (P62136 whole entry): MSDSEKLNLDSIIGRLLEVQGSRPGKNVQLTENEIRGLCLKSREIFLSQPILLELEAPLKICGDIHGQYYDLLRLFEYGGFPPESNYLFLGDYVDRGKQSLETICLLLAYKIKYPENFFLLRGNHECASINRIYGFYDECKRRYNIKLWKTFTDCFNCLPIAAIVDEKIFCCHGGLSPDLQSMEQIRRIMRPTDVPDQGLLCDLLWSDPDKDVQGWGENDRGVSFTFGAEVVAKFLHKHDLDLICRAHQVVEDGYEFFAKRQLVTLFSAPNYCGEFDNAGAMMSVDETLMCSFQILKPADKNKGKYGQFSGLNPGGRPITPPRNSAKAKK
smiles,measurement,setting,value
O=C(NC1=C(Nc2ccc(F)cc2)C(=O)c2ccccc2C1=O)c1ccc(Cl)cc1,AC50,[1],11.8 µM (active)
O=C(O)c1ccc2c(c1)[C@@H]1C=CC[C@@H]1[C@H](c1ccccn1)N2,IC50,Estrogen receptor,9.53 µM (active)
CN(C)c1cc(N/N=C\c2ccccc2)nc(N(C)C)n1,IC50,[2],> 67 µM (not active)
